From ChEMBL document CHEMBL5705903, “A DNA Hypomethylation Signature Predicts Antitumor Activity of LSD1 Inhibitors in SCLC” (Cancer Cell, 2015)
pIC50, pKi: −log10 of the molar value.

Tests used:
[1] = Inhibition of GABA-A receptor (unknown origin); design: species or system Homo sapiens
D-amino-acid oxidase = D-amino-acid oxidase (Homo sapiens, UniProt P14920); assay: Binding affinity to D-amino acid oxidase (unknown origin) assessed as apparent inhibition constant; settings: read-out: Ki(app)
D-amino-acid oxidase, sequence (P14920 whole entry): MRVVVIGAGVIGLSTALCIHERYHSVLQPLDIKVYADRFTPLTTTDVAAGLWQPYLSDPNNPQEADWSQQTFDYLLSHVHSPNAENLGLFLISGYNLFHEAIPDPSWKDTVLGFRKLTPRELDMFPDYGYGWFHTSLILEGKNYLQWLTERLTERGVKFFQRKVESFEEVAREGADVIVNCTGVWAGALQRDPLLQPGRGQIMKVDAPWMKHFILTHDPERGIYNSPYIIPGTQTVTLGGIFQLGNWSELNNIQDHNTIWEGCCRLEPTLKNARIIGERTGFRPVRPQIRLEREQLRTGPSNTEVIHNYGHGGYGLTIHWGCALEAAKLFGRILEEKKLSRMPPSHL

[2] = AUC (0 to last) in mouse blood at 5 mg/kg, po by HPLC/MS/MS analysis; format: ADME, organism-based
[3] = AUC (0 to infinity) in mouse blood at 5 mg/kg, po by HPLC/MS/MS analysis; format: ADME, organism-based
[4] = Effect on cleaved PARP level in human NCI-H1417 cells assessed as relative expression at 100 nM measured after 14 days by Western blot analysis (reference value: 0.38); format: functional; settings: time 14 day
[5] = Effect on cleaved PARP level in human NCI-H1417 cells assessed as fold change at 10 nM measured after 7 days by Western blot analysis (reference value: 1.00); format: functional; settings: time 7 day
[6] = Effect on cleaved PARP level in human NCI-H1417 cells assessed as fold change at 100 nM measured after 7 days by Western blot analysis (reference value: 1.00); format: functional; settings: time 7 day
[7] = Effect on cleaved PARP level in human NCI-H1417 cells assessed as fold change at 100 nM measured after 10 days by Western blot analysis (reference value: 1.00); format: functional; settings: time 10 day
[8] = Effect on cleaved PARP level in human NCI-H526 cells assessed as relative expression at 1000 nM measured after 10 days by Western blot analysis (reference value: 0.81); format: functional; settings: time 10 day
[9] = Effect on cleaved PARP level in human COLO-668 cells assessed as relative expression at 1000 nM measured after 7 days by Western blot analysis (reference value: […]); format: functional; settings: time 7 day
[10] = Effect on cleaved PARP level in human COLO-668 cells assessed as fold change at 10 nM measured after 10 days by Western blot analysis (reference value: 1.00); format: functional; settings: time 10 day
[11] = Effect on cleaved PARP level in human COLO-668 cells assessed as fold change at 1000 nM measured after 10 days by Western blot analysis (reference value: 1.00); format: functional; settings: time 10 day
[12] = Effect on cleaved PARP level in human NCI-H1694 cells assessed as relative expression at 100 nM measured after 14 days by Western blot analysis (reference value: 0.25); format: functional; settings: time 14 day
[13] = Effect on cleaved PARP level in human NCI-H69 cells assessed as relative expression at 10 nM measured after 14 days by Western blot analysis (reference value: 0.03); format: functional; settings: time 14 day
[14] = Effect on cleaved PARP level in human NCI-H69 cells assessed as fold change at 100 nM measured after 10 days by Western blot analysis (reference value: 1.00); format: functional; settings: time 10 day
[15] = Effect on cleaved PARP level in human NCI-H510 cells assessed as relative expression at 10 nM measured after 7 days by Western blot analysis (reference value: 0.24); format: functional, NCI-H510A; settings: time 7 day
[16] = Effect on cleaved PARP level in human NCI-H510 cells assessed as relative expression at 1000 nM measured after 14 days by Western blot analysis (reference value: 0.01); format: functional, NCI-H510A; settings: time 14 day
[17] = Effect on cleaved PARP level in human NCI-H889 cells assessed as relative expression at 10 nM measured after 7 days by Western blot analysis (reference value: 0.34); format: functional; settings: time 7 day
[18] = Effect on cleaved PARP level in human NCI-H889 cells assessed as relative expression at 100 nM measured after 7 days by Western blot analysis (reference value: 0.34); format: functional; settings: time 7 day
[19] = Effect on cleaved PARP level in human NCI-H889 cells assessed as relative expression at 1000 nM measured after 10 days by Western blot analysis (reference value: 0.33); format: functional; settings: time 10 day
[20] = Effect on cleaved PARP level in human NCI-H889 cells assessed as relative expression at 100 nM measured after 14 days by Western blot analysis (reference value: 0.94); format: functional; settings: time 14 day
[21] = Effect on cleaved PARP level in human NCI-H889 cells assessed as fold change at 10 nM measured after 14 days by Western blot analysis (reference value: 1.00); format: functional; settings: time 14 day
[22] = Effect on cleaved PARP level in human NCI-H2171 cells assessed as relative expression at 10 nM measured after 7 days by Western blot analysis (reference value: 0.02); format: functional; settings: time 7 day
[23] = Effect on cleaved PARP level in human NCI-H2171 cells assessed as relative expression at 100 nM measured after 14 days by Western blot analysis (reference value: 0.01); format: functional; settings: time 14 day
[24] = Effect on cleaved PARP level in human NCI-H2171 cells assessed as relative expression at 1000 nM measured after 14 days by Western blot analysis (reference value: 0.01); format: functional; settings: time 14 day
[25] = Effect on cleaved PARP level in human NCI-H2171 cells assessed as fold change at 100 nM measured after 10 days by Western blot analysis (reference value: 1.00); format: functional; settings: time 10 day
[26] = Effect on cleaved PARP level in human NCI-H146 cells assessed as fold change at 10 nM measured after 7 days by Western blot analysis (reference value: 1.00); format: functional; settings: time 7 day
[27] = Effect on cleaved PARP level in human NCI-H146 cells assessed as fold change at 10 nM measured after 14 days by Western blot analysis (reference value: 1.00); format: functional; settings: time 14 day
[28] = Toxicity in rat assessed as myelofibrosis measured for 28 days; settings: in vivo, 672 h, time 28 day
[29] = Toxicity in dog assessed as neutrophenia measured for 28 days; design: species or system Canis lupus familiaris; settings: in vivo, 672 h, time 28 day
[30] = Toxicity in dog assessed as effect on hemodynamics measured for 28 days; design: species or system Canis lupus familiaris; settings: in vivo, 672 h, time 28 day
NCI-H526 [31] = assay: Antitumor activity against human NCI-H526 cells xenografted in nude mouse assessed as mean tumor volume at 1.5 mg/kg, po administered daily measured twice weekly (reference value: 2359 +/- 247 mm3); format: functional
NCI-H526 [32] = assay: Antitumor activity against human NCI-H526 cells xenografted in nude mouse assessed as mean tumor volume at 0.5 mg/kg, po administered daily measured twice weekly (reference value: 2359 +/- 247 mm3); format: functional
NCI-H526 [33] = assay: In vivo inhibition of LSD1 in human NCI-H526 cells xenografted in nude mouse assessed as change in FEZ1 gene expression measured after 24 hrs post single administration by qRT-PCR analysis; format: functional, organism-based; settings: dose 0.06-135 mg/kg
NCI-H526 [34] = assay: In vivo inhibition of LSD1 in human NCI-H526 cells xenografted in nude mouse assessed as change in ZEB1 gene expression measured after 24 hrs post single administration by qRT-PCR analysis; format: functional, organism-based; settings: dose 0.06-135 mg/kg
NCI-H526 [35] = assay: In vivo inhibition of LSD1 in human NCI-H526 cells xenografted in nude mouse assessed as change in FEZ1 gene expression administrated daily for 5 days by qRT-PCR analysis; format: functional, organism-based; settings: dose 0.02-135 mg/kg, time 5.0 day
[36] = Antitumor activity against human PDX L48 cells xenografted in mouse assessed as tumor growth inhibition at 1.5 mg/kg administered daily measured for 16 days relative to control; format: functional; settings: PDX LX48, 384 h, time 16 day, read-out: TGI

In the case of `c1ccc([C@@H]2C[C@H]2NC2CCNCC2)cc1`, the pIC50 [1] was < 4.00.

With `O=C(O)c1ccc(CN2CCC(CN[C@@H]3C[C@H]3c3ccccc3)CC2)cc1` [GSK2879552] the pKi (D-amino-acid oxidase) was 3.28, the AUC(0-t) [2] was 853 ng·h/mL and the AUC(0-inf) [3] was 903 ng·h/mL. For the same compound, the Activity [4] was 0.32, the “fold change (FC)” value [5] was 1.53 and the “fold change (FC)” value [6] was 2.85. The “fold change (FC)” value [7] was 2.14, the Activity [8] was 1.15 and the Activity [9] was 1.36. The “fold change (FC)” value [10] was 0.75, the “fold change (FC)” value [11] was 0.59 and the Activity [12] was 0.23. For the same compound, the Activity [13] was 0.05, the “fold change (FC)” value [14] was 1.62 and the Activity [15] was 0.3. It also gave an Activity [16] of 0.47, an Activity [17] of 0.03 and an Activity [18] of 0.43. The Activity [19] was 0.91, the Activity [20] was 2.36 and the “fold change (FC)” value [21] was 1.84. It also gave an Activity [22] of 0.03, an Activity [23] of 0.02 and an Activity [24] of 0.02. For the same compound, the “fold change (FC)” value [25] was 1.2, the “fold change (FC)” value [26] was 1.09 and the “fold change (FC)” value [27] was 0.64. The Activity [28] was “Toxic”, the Activity [29] was “Toxic” and the Activity [30] was “Toxic”. The Activity (NCI-H526 [31]) was 1113 mm3, the Activity (NCI-H526 [32]) was 1319 mm3 and the inhibition (NCI-H526 [33]) was “Dose-Dependent Effect”. The inhibition (NCI-H526 [34]) was “Dose-Dependent Effect”, the inhibition (NCI-H526 [35]) was “Dose-Dependent Effect” and the inhibition in vivo at 1.5 mg/kg [36] was 74%.
